This is an account of results in ChEMBL document CHEMBL5136972, “Targeting SARS-CoV-2 Proteases and Polymerase for COVID-19 Treatment: State of the Art and Future Opportunities” (J Med Chem, 2022).

In data set [1] the test system is Feline infectious peritonitis virus. Briefly: Antiviral activity against FIPV infected in African green monkey Vero cells assessed as inhibition of plaque formation by viral plaque assay. In kind it is functional, organism-based. The following applies: Alphacoronavirus 1, Vero.
For another data set, the system named is Human coronavirus 229E. The experiment in a line: Antiviral activity against HCoV-229E infected in African green monkey Vero cells assessed as inhibition of plaque formation by viral plaque assay. The class given is functional, organism-based.
Data set [2] deals with Murine hepatitis virus. The experiment in a line: Antiviral activity against MHV infected in African green monkey Vero cells assessed as inhibition of plaque formation by viral plaque assay. The note with it: Murine coronavirus. The class given is functional, organism-based.
Data set [3] has as its system Murine hepatitis virus. Briefly: Antiviral activity against MHV-A59 infected in African green monkey Vero cells assessed as inhibition of plaque formation by viral plaque assay. In kind it is functional, organism-based. The note with it: Murine coronavirus.
Data set [4] in a line: Cytotoxicity against African green monkey Vero cells. The class given is toxicity, cell-based. The note with it: chlorocebus sabaeus.
Data set [5] is described as follows: Inhibition of MERS CoV 3CL protease using MCA-AVLQSGFR-Lys(Dnp)-Lys-NH2 as substrate by fluorescence based analysis. The arrangement: species or system Middle East respiratory syndrome-related coronavirus.
Data set [6] in a line: Half life in Sprague-Dawley […] measured up to 24 hrs. The class given is ADME, organism-based.
A short description of data set [7]: Half life in mouse at 2 mg/kg, IM. The note with it: in vivo. The class given is ADME, organism-based.
Data set [8] relates to SARS-CoV-2. The experiment in a line: Antiviral activity against SARS CoV-2 assessed as inhibition of virus-induced cytopathic effect by neutral red uptake assay. In kind it is functional, organism-based. The note with it: Severe acute respiratory syndrome coronavirus 2.
Data set [9] is described as follows: Inhibition of MERS 3CL protease using Dabcyl-KTSAVLQ/SGFRKME-Edans as substrate incubated for 30 mins followed by substrate addition measured after 30 mins by FRET assay. Also noted: species or system Middle East respiratory syndrome-related coronavirus.
Data set [10] can be described thus: Inhibition of TGEV 3CL protease using Dabcyl-KTSAVLQ/SGFRKME-Edans as substrate incubated for 30 mins followed by substrate addition measured after 30 mins by FRET assay. The arrangement: species or system Transmissible gastroenteritis virus.
Data set [11] in a line: Cytotoxicity against African green monkey Vero E6 cells by CCK-8 assay. The class given is toxicity, cell-based, Vero C1008. The note with it: chlorocebus sabaeus.
Data set [12] is described as follows: Inhibition of FIPV 3CL protease using dabcyl-KTSAVLQ/SGFRKME-edans as substrate incubated for 30 mins followed by substrate addition measured after 30 mins by FRET assay. Also noted: species or system Feline infectious peritonitis virus.
Data set [13] addresses Replicase polyprotein 1ab (Severe acute respiratory syndrome coronavirus 2, UniProt P0DTD1). Briefly: Inhibition of recombinant SARS CoV-2 PL protease incubated for 60 mins by fluorescence based analysis.
Data set [14] deals with SARS-CoV-2. Briefly: Antiviral activity against SARS CoV-2 infected in African green monkey Vero E6 cells assessed as inhibition of virus-induced cytopathic effect measured after 72 hrs by Reed-Muench method. The class given is functional, organism-based. The following applies: Severe acute respiratory syndrome coronavirus 2, Vero C1008, 72 h.
For data set [15], the system named is Middle East respiratory syndrome-related coronavirus. The experiment in a line: Antiviral activity against […] CoV infected in HAE cells measured after 48 hrs by CellTiter-Glo assay. The class given is functional, organism-based.
Data set [16] can be described thus: in vivo. The note with it: C57BL/6J (wild type), mouse, sc, 25 mg/kg.
The next data set deals with SARS-CoV. The experiment in a line: Antiviral activity against SARS CoV infected in HAE cells measured after 48 hrs by CellTiter-Glo assay. In kind it is functional, organism-based. The following applies: Severe acute respiratory syndrome-related coronavirus.
For data set [17], the system named is SARS-CoV-2. The experiment in a line: Antiviral activity against SARS CoV-2 infected in human Huh-7 cells measured up to 72 hrs by plaque assay. The class given is functional, organism-based. The note with it: Severe acute respiratory syndrome coronavirus 2, Huh-7, 72 h.
Data set [18] can be described thus: in vivo. The following applies: C57BL/6J (Ces1c knockout), mouse, sc, 25 mg/kg.
The test system of data set [19] is SARS-CoV-2. The experiment in a line: Antiviral activity against SARS CoV-2 infected in African green monkey Vero cells assessed as inhibition of plaque formation by viral plaque assay. The note with it: Severe acute respiratory syndrome coronavirus 2, Vero. In kind it is functional, organism-based.
The nature of data set [20]: Clearance in CD-1 mouse at 5 to 20 mg/kg, ip measured after up to 24 hrs by LC-MS/MS analysis. The note with it: in vivo, dose 5-20 mg/kg. The class given is ADME, organism-based.
The nature of data set [21]: Cmax in CD-1 mouse at 3 mg/kg, sc measured after up to 24 hrs by HPLC-MS/MS analysis. The class given is ADME, organism-based. The arrangement: time < 24 hrs, dose 3 mg/kg, route sc. The note with it: in vivo.
Data set [22] in a line: Half life in CD-1 mouse at 3 mg/kg, sc measured after up to 24 hrs by HPLC-MS/MS analysis. The class given is ADME, organism-based. The note with it: in vivo.
Data set [23] is described as follows: Inhibition of MERS CoV 3CL protease expressed in Escherichia coli BL21-Gold DE3 cells by FRET assay. Also noted: species or system Middle East respiratory syndrome-related coronavirus.

With `Cc1cc(C(=O)N[C@@H](C)C(=O)N[C@H](C(=O)N[C@@H](CC(C)C)C(=O)N[C@H](/C=C/C(=O)OCc2ccccc2)C[C@@H]2CCNC2=O)C(C)C)no1`, the EC50 in data set [1] is 8800 nM; in the data set on Human coronavirus 229E, 4000 nM; in the data set with Murine hepatitis virus [2] it was 3400 nM; in the data set on Murine hepatitis virus [3] it was 2700 nM. The half-maximal cytotoxic concentration (CC50) in data set [4] was > 133000 nM. Also, in data set [5], 300 nM corresponded to half-maximal inhibition (IC50).
Take `Nc1ncnc2c([C@@H]3N[C@H](CO)[C@@H](O)[C@H]3O)c[nH]c12`: the half-life in data set [6] is 372 min; in data set [7], < 5 min. Further, the EC50 in the data set on SARS-CoV-2 [8] is 57700 nM.
Take `CC(C)C[C@H](NC(=O)OCc1ccccc1)C(=O)N[C@@H](C[C@@H]1CCNC1=O)C(O)S(=O)(=O)O` (stereo partly specified): the IC50 in [9] was determined as 1560 nM; in [10], 820 nM; in data set [12], 720 nM. In addition, in data set [11], the CC50 is > 100000 nM.
As to `O=C(Nc1ccccc1O)c1ccccc1[Se][Se]c1ccccc1C(=O)Nc1ccccc1O`, the IC50 in data set [13] amounted to 34000 nM.
Consider `CCC(CC)COC(=O)[C@H](C)N[P@](=O)(OC[C@H]1O[C@@](C#N)(c2ccc3c(N)ncnn23)[C@H](O)[C@@H]1O)Oc1ccccc1`, for which the EC50 with SARS-CoV-2 [14] is 651 nM; in [15], 74 nM; in the data set with SARS-CoV, 69 nM; in the data set on SARS-CoV-2 [17], 3 nM. Also, the half-life at 144 h in “in vivo [16]” was < 5 min; in the data set “in vivo [18]”, 25 min.
Regarding `O=C[C@H](C[C@@H]1CCNC1=O)NC(=O)[C@H](Cc1cccc(F)c1)NC(=O)c1cc2ccccc2[nH]1`, in the data set on SARS-CoV-2 [19], the EC50 was 720 nM. The CL/F in data set [20] worked out at 21 mL/min/kg. For the same molecule, in data set [11], the CC50 is > 100000 nM.
In [21], `CC(C)(C)OC(=O)Nc1cccn([C@@H](CC2CC2)C(=O)N[C@@H](C[C@@H]2CCNC2=O)C(=O)C(=O)NCc2ccccc2)c1=O` returned a Cmax of 126 ng/mL. Besides, the half-life in data set [22] is < 120 min. In data set [23], this molecule displayed an IC50 of 580 nM.
